Earlier results as cited in patent US20140221490A1, “METHODS OF TREATING PAIN” (Hospira, Inc., priority 2011, published 2014).
Read-outs that look alike come from different tables or passages of the source.

Conditions: cited from earlier work; for K1:1, stability constant of 1:1 inclusion complex with HPβCD: literature reference; for Prot. bind., drug fraction bound to protein (fP): plasma; for Cmax: read-out: Cmax, maximum drug concentration in plasma, based on the drug's pharmacokinetics and administration of a normal drug dose

| Compound | Vd, volume of distribution [L/kg] | K1:1, stability constant of 1:1 inclusion complex with HPβCD | K1:1, stability constant of 1:1 inclusion complex with HPβCD (listed as fenofibrate) [M⁻¹] | Prot. bind., drug fraction bound to protein (fP) | Cmax [µM] | K1:1, stability constant of 1:1 inclusion complex with HPβCD (listed as telmisartan) |
| --- | --- | --- | --- | --- | --- | --- |
| CC(C)OC(=O)C(C)(C)Oc1ccc(C(=O)c2ccc(Cl)cc2)cc1 [Fenofibrate] | 0.9 | 2^24 M^−1 | 2 | 99% | 28 |  |
| C=CC1=C(C(=O)O)N2C(=O)[C@@H](NC(=O)/C(=N\OCC(=O)O)c3csc(N)n3)[C@H]2SC1 [Cefixime] | 1.0 | 1,400^9 M^−1 |  |  | 360 |  |
| C[C@H]1C[C@H]2[C@@H]3CCC4=CC(=O)C=C[C@]4(C)[C@@]3(F)[C@@H](O)C[C@]2(C)[C@@]1(O)C(=O)CO [Cilest (betamethasone), betamethasone] |  | 3,000^16 M^−1 |  | 64% | 0.29 |  |
| CCCc1nc2c(C)cc(-c3nc4ccccc4n3C)cc2n1Cc1ccc(-c2ccccc2C(=O)O)cc1 [Telmisartan] | 7 | 40,000^47 M^−1 |  | 99% | 2.8 | 40,000 M^−1 |
| NS(=O)(=O)c1cc(C2(O)NC(=O)c3ccccc32)ccc1Cl (stereo not drawn) [Chlortalidone (chlorthalidone), chlorthalidone] | 4.0 | 115^14 M^−1 |  | 75% | 19 |  |
| C[C@]12CC[C@H]3[C@@H](CCC4=CC(=O)CC[C@@]43C)[C@@H]1CC[C@@H]2O [Testosterone] |  |  |  | 98% |  |  |
| Cc1ccc(-c2cc(C(F)(F)F)nn2-c2ccc(S(N)(=O)=O)cc2)cc1 [Celecoxib] | 6.5 | 630^10 M^−1 |  | 97% | 1.9 |  |
| Cc1nccn1CC1CCc2c(c3ccccc3n2C)C1=O (stereo not drawn) [Ondansetron] | 1.7 | 180^39 M^−1 |  | 75% | 0.9 |  |
| O=C(CCCN1CCC(O)(c2ccc(Cl)cc2)CC1)c1ccc(F)cc1 [Haloperidol] | 18 |  |  | 92% | 0.088 |  |
| C=CC1=C(C(=O)O)N2C(=O)[C@@H](NC(=O)/C(=N\O)c3csc(N)n3)[C@H]2SC1 [Cefdinir] | 0.35 | 59^8 M^−1 |  | 70% | 7.3 |  |
| CC(=O)Nc1ccc(O)cc1 [Acetaminophen] | 0.95 |  |  | 20% | 50 |  |
| O=C(O)Cc1ccccc1Nc1c(Cl)cccc1Cl [Diclofenac Na, diclofenac sodium] | 0.17 |  |  | 99.5% | 13 |  |
| CC1(C)S[C@@H]2[C@H](NC(=O)[C@H](N)c3ccc(O)cc3)C(=O)N2[C@H]1C(=O)O [Amoxicillin] | 0.3 |  |  | 20% | 65 |  |
| O=C(N[C@H](CO)[C@H](O)c1ccc([N+](=O)[O-])cc1)C(Cl)Cl [Chloramphenicol] | 0.80 |  |  | 80% | 130 |  |
| O=C1[C@H](CC[C@H](O)c2ccc(F)cc2)[C@@H](c2ccc(O)cc2)N1c1ccc(F)cc1 [Ezetimibe] | 1.5 | 1,300^23 M^−1 |  | 90% | 0.012 |  |
| CC(C(=O)O)c1cccc(C(=O)c2ccccc2)c1 (stereo not drawn) [Ketoprofen] | 0.15 |  |  |  |  |  |
| CC(C(=O)O)c1ccc(-c2ccccc2)c(F)c1 (stereo not drawn) [Flurbiprofen] | 0.12 | 7,500^26 M^−1 |  | 99% | 62 |  |
| CCNC(=O)CCC/C=C\C[C@@H]1[C@@H](/C=C/[C@@H](O)CCc2ccccc2)[C@H](O)C[C@@H]1O [Bimatoprost] | 0.67 | 1,900^i M^−1 |  | 88% | 0.00019 |  |
| Clc1ccc(COC(Cn2ccnc2)c2ccc(Cl)cc2Cl)cc1 (stereo not drawn) [Econazole nitrate] |  | 13^20 M^−1 |  | (96) % | 5.5 |  |
| C[C@]12C=CC(=O)C=C1CC[C@@H]1[C@@H]2[C@@H](O)C[C@@]2(C)[C@H]1CC[C@]2(O)C(=O)CO [Prednisolone] | 1.5 | 2,400^42 M^−1 |  | 90% | 1.3 |  |
| COc1ccccc1OCCNCC(O)COc1cccc2[nH]c3ccccc3c12 (stereo not drawn) [Carvedilol] | 1.7 | 580^7 M^−1 |  | 98% | 400 |  |
| Clc1ccc(COC(Cn2ccnc2)c2ccc(Cl)cc2Cl)c(Cl)c1 (stereo not drawn) [Miconazole] | 20 |  |  | 92% | 0.029 |  |
| CN1CC(=O)N2[C@H](c3ccc4c(c3)OCO4)c3[nH]c4ccccc4c3C[C@@H]2C1=O [Tadalafil] | 0.9 | 360^46 M^−1 |  | 94% | 1.3 |  |

| Compound | Vd, volume of distribution [L/kg] | K1:1, stability constant of 1:1 inclusion complex with HPβCD | K1:1, stability constant of 1:1 inclusion complex with HPβCD (listed as fenofibrate) [M⁻¹] | Prot. bind., drug fraction bound to protein (fP) | Cmax [µM] | K1:1, stability constant of 1:1 inclusion complex with HPβCD (listed as telmisartan) |
| --- | --- | --- | --- | --- | --- | --- |
| O=C(O)CCc1nc(-c2ccccc2)c(-c2ccccc2)o1 [Oxaprozin] | 0.15 |  |  | 99% | 780 |  |
| COc1ccc2cc(CCC(C)=O)ccc2c1 [Nabumetone] | 0.2 | 3,000^35 M^−1 |  | 99% | 160 |  |
| COc1ccnc(C[S+]([O-])c2nc3ccc(OC(F)F)cc3[nH]2)c1OC (stereo not drawn) [Pantoprazole] | 0.15 | 420^41 M^−1 |  | 98% | 6.5 |  |
| CCCCN1CCCCC1C(=O)Nc1c(C)cccc1C (stereo not drawn) [Bupivacaine] | 1.0 | 13^5 M^−1 |  | 95% | 6.9 |  |
| NC(=O)N1c2ccccc2C=Cc2ccccc21 [Carbamazepine] | 1.4 | 630^6 M^−1 |  | 75% | 34 |  |
| CC(C)c1cccc(C(C)C)c1O [Propofol] |  |  |  | 99% |  |  |
| CC(=O)OCC1=C(C(=O)O)N2C(=O)[C@@H](NC(=O)Cc3cccs3)[C@H]2SC1 [Cephalothin] | 0.26 | 70^11 M^−1 |  | 80% | 76 |  |
| CC(=O)O[C@]1(C(C)=O)CC[C@H]2[C@@H]3C[C@H](C)C4=CC(=O)CC[C@]4(C)[C@H]3CC[C@@]21C [Medroxyprogesterone acetate] |  | 260^33 M^−1 |  | 90% | 1.8 |  |
| COC(=O)C1=C(C)NC(C)=C(C(=O)OCCN(C)Cc2ccccc2)C1c1cccc([N+](=O)[O-])c1 (stereo not drawn) [Nicardipine] | 8.3 |  |  |  | 0.53 |  |
| CC(=O)Nc1nnc(S(N)(=O)=O)s1 [Acetazolamide] | 0.2 |  |  | 95% | 160 |  |
| CN[C@H]1CC[C@@H](c2ccc(Cl)c(Cl)c2)c2ccccc21 [Sertaline] |  |  |  | 98% |  |  |
| Nc1nc2c(ncn2COCCO)c(=O)[nH]1 [Acyclovir] |  | 770^2 M^−1 |  |  | 7.2 |  |
| COc1ccc2[nH]c([S+]([O-])Cc3ncc(C)c(OC)c3C)nc2c1 (stereo not drawn) [Omeprazole] | 0.35 | 70^38 M^−1 |  | 96% | 4.1 |  |
| CCc1cccc2c3c([nH]c12)C(CC)(CC(=O)O)OCC3 (stereo not drawn) [Etodolac] | 0.4 |  |  | 99% | 170 |  |
| Cc1ncc2n1-c1ccc(Cl)cc1C(c1ccccc1F)=NC2 [Midazolam] |  |  |  | 97% |  |  |
| CCC1=C(C)CN(C(=O)NCCc2ccc(S(=O)(=O)NC(=O)N[C@H]3CC[C@H](C)CC3)cc2)C1=O [Glimepride] |  |  |  | 99.5% |  |  |
| C[C@]12CC[C@@H]3c4ccc(O)cc4CC[C@H]3[C@@H]1CC[C@@H]2O [Estradiol] | 1 | 2,000^22 M^−1 |  | 97% | 0.00053 |  |
| CNC1=Nc2ccc(Cl)cc2C(c2ccccc2)=[N+]([O-])C1 [Chlordiazepoxide] |  |  |  | 96% |  |  |
| CC(C)Cc1ccc(C(C)C(=O)O)cc1 (stereo not drawn) [Ibuprofen] |  | 5,000^31 M^−1 |  |  | 280 |  |
| CNCCC(Oc1ccc(C(F)(F)F)cc1)c1ccccc1 (stereo not drawn) [Fluoxetine] | 27 |  |  | 95% | 0.18 |  |
| CC(=O)Oc1ccccc1C(=O)O [Acetylsalicylic acid] | 0.15 | 100^l M^−1 |  | 80% | 530 |  |
